Assay [1] has as its system Human alphaherpesvirus 2. Kind of assay: Concentration required for inhibition of proliferation of herpes simplex virus type II at 0.07 ug/mL. The format is functional.
A short description of assay [2]: Concentration required for inhibition of proliferation of herpes simplex virus type I at 0.07 ug/mL. The note with it: Human alphaherpesvirus 1. It counts as functional.

Broadly, the inhibition is the percentage by which the read-out fell short of the control. Read a low inhibition as a weak effect.

Regarding `O=c1[nH]c(=O)n(C2COC(CO)C(O)C2)cc1I` (configuration not stated), the inhibition at 0.07 µg/mL in assay [1] and in assay [2] was 50% in each case.
